From the supplement of paper PMC10307832 come the findings set out here.

Common to all, as to experiment: relative viability (nuclei count vs DMSO), 5 days (fraction); higher = more cells survive
Compound in experiment [1]: C=C(c1ccc(C(=O)O)cc1)c1cc2c(cc1C)C(C)(C)CCC2(C)C [Bexarotene] + COc1cccc2cc(-c3nc([C@H]4CC[C@H](C(=O)O)CC4)n4ncnc(N)c34)[nH]c12 [OSI-027] (partner 0.5 µM)
Put shortly: (§1)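 After 5 days of treatment, lung cancer cells in 1536-well plates were fixed and stained in a single step (final 0.05% Triton X-100, 1% formaldehyde, 1 ug/ml Hoechst) and their nuclei counted on 4× images. Treatment had been applied by pin tool the day after seeding as one drug alone or as a fixed anchor-drug dose with five library-drug doses (not always all listed) in √10 steps. Relative viability is the nuclei count of treated wells divided by that of vehicle wells, and values are medians of duplicate plates.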

Compound in experiment [2]: C=C(c1ccc(C(=O)O)cc1)c1cc2c(cc1C)C(C)(C)CCC2(C)C [Bexarotene] + CC(=O)Nc1cccc(-n2c(=O)n(C3CC3)c(=O)c3c(Nc4ccc(I)cc4F)n(C)c(=O)c(C)c32)c1 [Trametinib] (partner 0.02 µM)
Put shortly:
as §1

Compound in experiment [3]: C=C(c1ccc(C(=O)O)cc1)c1cc2c(cc1C)C(C)(C)CCC2(C)C [Bexarotene] + C[C@]1(O)C[C@@H](c2nc(-c3ccc4ccc(-c5ccccc5)nc4c3)c3c(N)nccn32)C1 [Linsitinib] (partner 1 µM)
Put shortly:
as §1

Compound in experiment [4]: C=C(c1ccc(C(=O)O)cc1)c1cc2c(cc1C)C(C)(C)CCC2(C)C [Bexarotene] + CS(=O)(=O)CCNCc1ccc(-c2ccc3ncnc(Nc4ccc(OCc5cccc(F)c5)c(Cl)c4)c3c2)o1 [Lapatinib] (partner 2 µM)
In outline:
as §1

Take NCI-H2085: the relative viability in experiment [1] (first compound 0.08 µM) amounted to 0.841; in experiment [1] (first compound 0.253 µM) it was 0.718; in experiment [1] (first compound 0.8 µM), 0.642; in experiment [1] (first compound 2.53 µM), 0.675; in experiment [1] (first compound 8 µM), 0.704; in experiment [2] (first compound 0.08 µM) it was 0.486. Besides, the relative viability in experiment [2] (first compound 0.253 µM) is 0.59; in experiment [2] (first compound 0.8 µM), 0.4; in experiment [2] (first compound 2.53 µM), 0.449; in experiment [2] (first compound 8 µM) it was 0.535; in experiment [3] (first compound 0.08 µM), 0.776; in experiment [3] (first compound 0.253 µM), 0.793. In addition, the relative viability in experiment [3] (first compound 0.8 µM) is 0.797; in experiment [3] (first compound 2.53 µM), 0.685; in experiment [3] (first compound 8 µM) it was 0.712; in experiment [4] (first compound 0.08 µM) it was 0.739; in experiment [4] (first compound 0.253 µM), 0.723; in experiment [4] (first compound 0.8 µM), 0.596. The relative viability in experiment [4] (first compound 2.53 µM) is 0.703; in experiment [4] (first compound 8 µM) it was 0.731.

As for NCI-H2087, the relative viability turned out to be 0.643 in experiment [1] (first compound 0.08 µM); 0.693 in experiment [1] (first compound 0.253 µM); 0.663 in experiment [1] (first compound 0.8 µM); 0.565 in experiment [1] (first compound 2.53 µM); 0.448 in experiment [1] (first compound 8 µM); 0.21 in experiment [2] (first compound 0.08 µM). Further, the relative viability in experiment [2] (first compound 0.253 µM) amounted to 0.166; in experiment [2] (first compound 0.8 µM), 0.175; in experiment [2] (first compound 2.53 µM), 0.148; in experiment [2] (first compound 8 µM), 0.171; in experiment [3] (first compound 0.08 µM), 1.01; in experiment [3] (first compound 0.253 µM) it was 0.963. Further, the relative viability in experiment [3] (first compound 0.8 µM) is 0.89; in experiment [3] (first compound 2.53 µM), 0.896; in experiment [3] (first compound 8 µM) it was 0.827; in experiment [4] (first compound 0.08 µM), 1.06; in experiment [4] (first compound 0.253 µM) it was 1.16; in experiment [4] (first compound 0.8 µM), 1.2. Moreover, the values for the relative viability in experiment [4] (first compound 2.53 µM) and in experiment [4] (first compound 8 µM) were 0.98 and 0.883, respectively.

As to NCI-H2126, the relative viability in experiment [1] (first compound 0.08 µM) was determined as 0.675; in experiment [1] (first compound 0.253 µM), 0.71; in experiment [1] (first compound 0.8 µM) it was 0.742; in experiment [1] (first compound 2.53 µM) it was 0.74; in experiment [1] (first compound 8 µM), 0.683; in experiment [2] (first compound 0.08 µM), 0.639. Further, the relative viability stood at 0.56 in experiment [2] (first compound 0.253 µM); 0.553 in experiment [2] (first compound 0.8 µM); 0.619 in experiment [2] (first compound 2.53 µM); 0.54 in experiment [2] (first compound 8 µM); 0.8 in experiment [3] (first compound 0.08 µM); 0.762 in experiment [3] (first compound 0.253 µM). For the same cell line, the relative viability was determined as 0.789 in experiment [3] (first compound 0.8 µM); 0.791 in experiment [3] (first compound 2.53 µM); 0.753 in experiment [3] (first compound 8 µM); 0.768 in experiment [4] (first compound 0.08 µM); 0.741 in experiment [4] (first compound 0.253 µM); 0.73 in experiment [4] (first compound 0.8 µM). For the same cell line, the relative viability in experiment [4] (first compound 2.53 µM) was found to be 0.81; in experiment [4] (first compound 8 µM), 0.757.

Regarding NCI-H2228, the relative viability in experiment [1] (first compound 0.08 µM) is 0.848; in experiment [1] (first compound 0.253 µM), 0.639; in experiment [1] (first compound 0.8 µM) it was 0.359; in experiment [1] (first compound 2.53 µM), 0.568; in experiment [1] (first compound 8 µM), 0.477; in experiment [2] (first compound 0.08 µM), 0.54. The relative viability in experiment [2] (first compound 0.253 µM) amounted to 0.641; in experiment [2] (first compound 0.8 µM), 0.389; in experiment [2] (first compound 2.53 µM) it was 0.457; in experiment [2] (first compound 8 µM) it was 0.417; in experiment [3] (first compound 0.08 µM), 0.905; in experiment [3] (first compound 0.253 µM), 0.818. For the same cell line, the relative viability in experiment [3] (first compound 0.8 µM) came out at 0.586; in experiment [3] (first compound 2.53 µM) it was 0.656; in experiment [3] (first compound 8 µM), 0.749; in experiment [4] (first compound 0.08 µM), 1.55; in experiment [4] (first compound 0.253 µM), 0.935; in experiment [4] (first compound 0.8 µM) it was 0.763. Further, the relative viability in experiment [4] (first compound 2.53 µM) amounted to 1.17; in experiment [4] (first compound 8 µM), 0.909.

Regarding NCI-H2347, the relative viability in experiment [1] (first compound 0.08 µM) worked out at 0.353; in experiment [1] (first compound 0.253 µM), 0.275; in experiment [1] (first compound 2.53 µM) it was 0.446; in experiment [1] (first compound 8 µM), 0.386; in experiment [2] (first compound 0.08 µM) it was 0.31; in experiment [2] (first compound 0.253 µM), 0.235. The relative viability in experiment [2] (first compound 0.8 µM) was 0.25; in experiment [2] (first compound 2.53 µM), 0.279; in experiment [2] (first compound 8 µM), 0.299; in experiment [3] (first compound 0.08 µM), 1.06; in experiment [3] (first compound 0.253 µM) it was 1.02; in experiment [3] (first compound 0.8 µM) it was 0.749. Moreover, the relative viability worked out at 0.975 in experiment [3] (first compound 2.53 µM); 1.02 in experiment [3] (first compound 8 µM); 1.18 in experiment [4] (first compound 0.08 µM); 1.1 in experiment [4] (first compound 0.253 µM); 0.669 in experiment [4] (first compound 0.8 µM); 1.06 in experiment [4] (first compound 2.53 µM). Moreover, the relative viability in experiment [4] (first compound 8 µM) came to 0.917.

Take NCI-H2405: the relative viability is 0.675 in experiment [1] (first compound 0.08 µM); 0.674 in experiment [1] (first compound 0.253 µM); 0.512 in experiment [1] (first compound 0.8 µM); 0.708 in experiment [1] (first compound 2.53 µM); 0.65 in experiment [1] (first compound 8 µM); 0.823 in experiment [2] (first compound 0.08 µM). The relative viability in experiment [2] (first compound 0.253 µM) worked out at 0.819; in experiment [2] (first compound 0.8 µM), 0.66; in experiment [2] (first compound 2.53 µM), 0.749; in experiment [2] (first compound 8 µM), 0.693; in experiment [3] (first compound 0.08 µM) it was 1.1; in experiment [3] (first compound 0.253 µM), 0.946. Further, the relative viability in experiment [3] (first compound 0.8 µM) stood at 0.695; in experiment [3] (first compound 2.53 µM), 0.973; in experiment [3] (first compound 8 µM) it was 0.912; in experiment [4] (first compound 0.08 µM), 1.16; in experiment [4] (first compound 0.253 µM) it was 1.07; in experiment [4] (first compound 0.8 µM), 0.824. For the same cell line, the relative viability in experiment [4] (first compound 2.53 µM) is 1.08; in experiment [4] (first compound 8 µM) it was 1.24.

Regarding NCI-H3122, the relative viability in experiment [1] (first compound 0.08 µM) was found to be 1.09; in experiment [1] (first compound 0.253 µM), 1.09; in experiment [1] (first compound 0.8 µM), 1.05; in experiment [1] (first compound 2.53 µM), 0.989; in experiment [1] (first compound 8 µM), 1.07; in experiment [2] (first compound 0.08 µM), 0.25. Moreover, the relative viability worked out at 0.229 in experiment [2] (first compound 0.253 µM); 0.191 in experiment [2] (first compound 0.8 µM); 0.238 in experiment [2] (first compound 2.53 µM); 0.224 in experiment [2] (first compound 8 µM); 1.14 in experiment [3] (first compound 0.08 µM); 1.08 in experiment [3] (first compound 0.253 µM). Besides, the relative viability is 1.1 in experiment [3] (first compound 0.8 µM); 1.07 in experiment [3] (first compound 2.53 µM); 1.14 in experiment [3] (first compound 8 µM); 1.09 in experiment [4] (first compound 0.08 µM); 1.06 in experiment [4] (first compound 0.253 µM); 1.12 in experiment [4] (first compound 0.8 µM). Besides, the relative viability in experiment [4] (first compound 2.53 µM) is 1.08; in experiment [4] (first compound 8 µM), 1.12.
